Data: US11542530B2, “Method for increasing efficiency of homologous recombination-based gene editing in plant” (INDUSTRY-ACADEMIC COOPERATION FOUNDATION GYEONGSANG …, priority 2018, dated 2023)
Read-outs that look alike come from different tables or passages of the source.

Tests used:
[1] = system: recombinase RAD51; conditions: mouse, reported; cited from earlier work
[2] = system: RAD51; test: HDR efficiency after treatment with RS-1; type: cell-based; conditions: RS-1 as activator of RAD51
Text: As a method which can be used either simultaneously or separately from the approaching method of above VI, there is a method of activating HDR pathway-regulating proteins by using chemical factors.

[3] = system: mammalian ligase IV; conditions: human cell line, reported; cited from earlier work
[4] = system: mammalian ligase IV; conditions: mouse, reported; cited from earlier work
[5] = system: ligase IV of the NHEJ pathway; test: HDR efficiency after treatment with NHEJ inhibitor SCR7 pyrazine, tomato cotyledons with pTC217 / pTC147; type: cell-based; conditions: for Editing efficiency: total purple spots (pTC217)/total purple spots (pTC147)×100 / Editing efficiency / Purple spot/cotyledon (Avg.) / Purple spots (Total): 21 dpi
Text: In the present invention, a method of increasing the HDR efficiency according to blocking of the NHEJ pathway by using Scr7 pyrazine chemical compound, which is an inhibitor of ligase IV of the NHEJ pathway in competitive relationship with the HDR pathway, was employed. As a result, when Scr7 pyrazine is used, the HDR efficiency had increased by 4 times compared to the comparative control group.
In order to measure the HDR frequency of Cas9, 21 days after the Agrobacterium infection, purple spots were counted from the cotyledon which has been infected with pTC217 (BeYDV with Cas9/gRNA1b) virus replicon and also from the cotyledon which has been transformed with pTC147 (35S:ANT1 T-DNA) control vector. By dividing the total number of purple spots that has been counted from callus generated with pTC217 by the total number of purple spots that has been counted from callus generated with pTC147, the HDR frequency rate was estimated.
DNA repair is mostly achieved by NHEJ pathway, and HDR-based repair occurs very limitedly. According to previous studies made on mammals, it was reported that HDR efficiency can be increased by blocking the NHEJ pathway. It is reported that SCR7 pyrazine, which is an inhibitor of mammalian ligase IV, can increase HDR as much as about 19 times in mouse, or 5 times in human cell line. […] However, no report has been made regarding the influence of SCR7 pyrazine on plant HDR. Accordingly, the effect of a treatment with different cultivation period (0, 1, 2 or 3 days) or different SCR7 pyrazine concentration (0, 1, 10 μM) was examined by the inventors of the present invention by using Cas9 structure pTC217 (BeYDV having Cas9/gRNA1b).
[Editing efficiency: total purple spots (pTC217)/total purple spots (pTC147)×100]

[6] = system: ligase IV; conditions: reported, background art; cited from earlier work
[7] = Table 13 (Change 1), pTC147 (T-DNA), SCR7 1 μM, 1 day, cv. Hong-Kwang, DD→16L/8D, 28° C.
[8] = Table 13 (Change 1), pTC147 (T-DNA), SCR7 1 μM, 2 days, cv. Hong-Kwang, DD→16L/8D, 28° C.
[9] = Table 13 (Change 1), pTC147 (T-DNA), SCR7 1 μM, 3 days, cv. Hong-Kwang, DD→16L/8D, 28° C.
[10] = Table 13 (Change 1), pTC147 (T-DNA), SCR7 10 μM, 1 day, cv. Hong-Kwang, DD→16L/8D, 28° C.
[11] = Table 13 (Change 1), pTC147 (T-DNA), SCR7 10 μM, 2 days, cv. Hong-Kwang, DD→16L/8D, 28° C.
[12] = Table 13 (Change 1), pTC147 (T-DNA), SCR7 10 μM, 3 days, cv. Hong-Kwang, DD→16L/8D, 28° C.
[13] = Table 13 (Change 1), pTC217, SCR7 1 μM, 1 day, cv. Hong-Kwang, DD→16L/8D, 28° C.
[14] = Table 13 (Change 1), pTC217, SCR7 1 μM, 2 days, cv. Hong-Kwang, DD→16L/8D, 28° C.
[15] = Table 13 (Change 1), pTC217, SCR7 1 μM, 3 days, cv. Hong-Kwang, DD→16L/8D, 28° C.
[16] = Table 13 (Change 1), pTC217, SCR7 10 μM, 1 day, cv. Hong-Kwang, DD→16L/8D, 28° C.
[17] = Table 13 (Change 1), pTC217, SCR7 10 μM, 2 days, cv. Hong-Kwang, DD→16L/8D, 28° C.
[18] = Table 13 (Change 1), pTC217, SCR7 10 μM, 3 days, cv. Hong-Kwang, DD→16L/8D, 28° C.
[19] = Table 14 (Change 2), pTC147 (T-DNA), SCR7 1 μM, 1 day, cv. Hong-Kwang, DD→16L/8D, 28° C.
[20] = Table 14 (Change 2), pTC147 (T-DNA), SCR7 1 μM, 2 days, cv. Hong-Kwang, DD→16L/8D, 28° C.
[21] = Table 14 (Change 2), pTC147 (T-DNA), SCR7 1 μM, 3 days, cv. Hong-Kwang, DD→16L/8D, 28° C.
[22] = Table 14 (Change 2), pTC147 (T-DNA), SCR7 10 μM, 1 day, cv. Hong-Kwang, DD→16L/8D, 28° C.
[23] = Table 14 (Change 2), pTC147 (T-DNA), SCR7 10 μM, 2 days, cv. Hong-Kwang, DD→16L/8D, 28° C.
[24] = Table 14 (Change 2), pTC147 (T-DNA), SCR7 10 μM, 3 days, cv. Hong-Kwang, DD→16L/8D, 28° C.
[25] = Table 14 (Change 2), pTC217, SCR7 1 μM, 1 day, cv. Hong-Kwang, DD→16L/8D, 28° C.
[26] = Table 14 (Change 2), pTC217, SCR7 1 μM, 2 days, cv. Hong-Kwang, DD→16L/8D, 28° C.
[27] = Table 14 (Change 2), pTC217, SCR7 1 μM, 3 days, cv. Hong-Kwang, DD→16L/8D, 28° C.
[28] = Table 14 (Change 2), pTC217, SCR7 10 μM, 1 day, cv. Hong-Kwang, DD→16L/8D, 28° C.
[29] = Table 14 (Change 2), pTC217, SCR7 10 μM, 2 days, cv. Hong-Kwang, DD→16L/8D, 28° C.
[30] = Table 14 (Change 2), pTC217, SCR7 10 μM, 3 days, cv. Hong-Kwang, DD→16L/8D, 28° C.
[31] = pTC147 (T-DNA), SCR7 1 μM, cv. Tom-Heart, 16L/8D, 25° C.
[32] = pTC147 (T-DNA), SCR7 10 μM, cv. Tom-Heart, 16L/8D, 25° C.
[33] = pTC217, SCR7 1 μM, cv. Tom-Heart, 16L/8D, 25° C.
[34] = pTC217, SCR7 10 μM, cv. Tom-Heart, 16L/8D, 25° C.

O=C(Nc1ccc(Br)cc1)c1ccc(Br)c(S(=O)(=O)NCc2ccccc2)c1 [RS-1, RAD51-stimulatory compound 1]
effect on HDR efficiency [1]: can increase the HDR efficiency in mouse | increase of HDR efficiency [2]: approximately 3 times

O=c1[nH]c(=S)[nH]c2nc(-c3ccccc3)c(-c3ccccc3)nc12 [SCR7, 2,3-dihydro-6,7-diphenyl-2-thioxo-4 (1H)-pteridinone]
increase of HDR [3]: ~5 times | increase of HDR [4]: about 19 times | Editing efficiency: total purple spots (pTC217)/total purple spots (pTC147)×100 ([5]; SCR7 1 μM, cv. Tom-Heart, 16L/8D, 25° C.): 4.5 | Editing efficiency: total purple spots (pTC217)/total purple spots (pTC147)×100 ([5]; SCR7 10 μM, cv. Tom-Heart, 16L/8D, 25° C.): 11.9 | Editing efficiency ([5]; Table 13 (Change 1), SCR7 1 μM, 1 day, cv. Hong-Kwang, DD→16L/8D, 28° C.): 1.89 | Editing efficiency ([5]; Table 13 (Change 1), SCR7 1 μM, 2 days, cv. Hong-Kwang, DD→16L/8D, 28° C.): 3.39 | Editing efficiency ([5]; Table 13 (Change 1), SCR7 1 μM, 3 days, cv. Hong-Kwang, DD→16L/8D, 28° C.): 7.74 | Editing efficiency ([5]; Table 13 (Change 1), SCR7 10 μM, 1 day, cv. Hong-Kwang, DD→16L/8D, 28° C.): 3.41 | Editing efficiency ([5]; Table 13 (Change 1), SCR7 10 μM, 2 days, cv. Hong-Kwang, DD→16L/8D, 28° C.): 9.27 | Editing efficiency ([5]; Table 13 (Change 1), SCR7 10 μM, 3 days, cv. Hong-Kwang, DD→16L/8D, 28° C.): 22.93 | Purple spot/cotyledon (Avg.) [5, 7]: 28.7 | Purple spots (Total) [5, 7]: 1005 | Purple spot/cotyledon (Avg.) [5, 8]: 26.9 | Purple spots (Total) [5, 8]: 942 | Purple spot/cotyledon (Avg.) [5, 9]: 23.2 | Purple spots (Total) [5, 9]: 813 | Purple spot/cotyledon (Avg.) [5, 10]: 20.1 | Purple spots (Total) [5, 10]: 703 | Purple spot/cotyledon (Avg.) [5, 11]: 18.8 | Purple spots (Total) [5, 11]: 658 | Purple spot/cotyledon (Avg.) [5, 12]: 14.2 | Purple spots (Total) [5, 12]: 497 | Purple spot/cotyledon (Avg.) [5, 13]: 0.55 | Purple spots (Total) [5, 13]: 19 | Purple spot/cotyledon (Avg.) [5, 14]: 0.93 | Purple spots (Total) [5, 14]: 32 | Purple spot/cotyledon (Avg.) [5, 15]: 1.8 | Purple spots (Total) [5, 15]: 63 | Purple spot/cotyledon (Avg.) [5, 16]: 0.68 | Purple spots (Total) [5, 16]: 24 | Purple spot/cotyledon (Avg.) [5, 17]: 1.75 | Purple spots (Total) [5, 17]: 61 | Purple spot/cotyledon (Avg.) [5, 18]: 3.26 | Purple spots (Total) [5, 18]: 114 | Editing efficiency ([5]; Table 14 (Change 2), SCR7 1 μM, 1 day, cv. Hong-Kwang, DD→16L/8D, 28° C.): 7.45 | Editing efficiency ([5]; Table 14 (Change 2), SCR7 1 μM, 2 days, cv. Hong-Kwang, DD→16L/8D, 28° C.): 7.17 | Editing efficiency ([5]; Table 14 (Change 2), SCR7 1 μM, 3 days, cv. Hong-Kwang, DD→16L/8D, 28° C.): 7.54 | Editing efficiency ([5]; Table 14 (Change 2), SCR7 10 μM, 1 day, cv. Hong-Kwang, DD→16L/8D, 28° C.): 11.34 | Editing efficiency ([5]; Table 14 (Change 2), SCR7 10 μM, 2 days, cv. Hong-Kwang, DD→16L/8D, 28° C.): 13.52 | Editing efficiency ([5]; Table 14 (Change 2), SCR7 10 μM, 3 days, cv. Hong-Kwang, DD→16L/8D, 28° C.): 15.15 | Purple spot/cotyledon (Avg.) [5, 19]: 26.0 | Purple spots (Total) [5, 19]: 912 | Purple spot/cotyledon (Avg.) [5, 20]: 17.9 | Purple spots (Total) [5, 20]: 627 | Purple spot/cotyledon (Avg.) [5, 21]: 18.9 | Purple spots (Total) [5, 21]: 663 | Purple spot/cotyledon (Avg.) [5, 22]: 22.9 | Purple spots (Total) [5, 22]: 802 | Purple spot/cotyledon (Avg.) [5, 23]: 21.5 | Purple spots (Total) [5, 23]: 754 | Purple spot/cotyledon (Avg.) [5, 24]: 18.8 | Purple spots (Total) [5, 24]: 660 | Purple spot/cotyledon (Avg.) [5, 25]: 1.96 | Purple spots (Total) [5, 25]: 68 | Purple spot/cotyledon (Avg.) [5, 26]: 1.29 | Purple spots (Total) [5, 26]: 45 | Purple spot/cotyledon (Avg.) [5, 27]: 1.44 | Purple spots (Total) [5, 27]: 50 | Purple spot/cotyledon (Avg.) [5, 28]: 2.60 | Purple spots (Total) [5, 28]: 91 | Purple spot/cotyledon (Avg.) [5, 29]: 2.91 | Purple spots (Total) [5, 29]: 102 | Purple spot/cotyledon (Avg.) [5, 30]: 2.85 | Purple spots (Total) [5, 30]: 100 | increase of HDR efficiency ([5]; compared to the comparative control group): 4 times | HDR frequency, dependence on treatment ([5]; cultivation period 0, 1, 2 or 3 days, 0, 1, 10 μM, pTC217): HDR frequency increases in accordance with an increase in the treatment time (period) and concentration | Purple spot/cotyledon (Avg.) [5, 31]: 22.2 | Purple spots (Total) [5, 31]: 1154 | Purple spot/cotyledon (Avg.) [5, 32]: 21.8 | Purple spots (Total) [5, 32]: 1137 | Purple spot/cotyledon (Avg.) [5, 33]: 1 | Purple spots (Total) [5, 33]: 52 | Purple spot/cotyledon (Avg.) [5, 34]: 2.61 | Purple spots (Total) [5, 34]: 136 | increase of HDR [6]: 2 to 19 times
